According to patent US20260158011A1 (Achieve Life Sciences, Inc., priority 2023, published 2026):
Like-named read-outs stand apart in the source and are kept apart here.

Tested on: adult e-cigarette users
Conditions: for Saliva Cotinine Actual Value, Mean / Saliva Cotinine Actual Value, Median / Saliva Cotinine Change from Baseline, Mean / Saliva Cotinine Change from Baseline, Median: 12 Weeks arm, All Randomized Set; for Saliva Cotinine Change from Baseline, LS Means / Saliva Cotinine Change from Baseline, LS Means Difference from Placebo: repeated-measures ANOVA
From the text: A second measurement consisted of biochemically verified continuous vaping abstinence at any time during treatment, with vaping abstinence at Week 3-6 or Week 6-9 for of cytisinicline treatment vs placebo. 7-day point prevalence rates were compared for vaping abstinence (Week 2 to 12) (FIG. 62). An additional measurement included reduction in daily vaping as measured by cotinine, where cytisinicline treatment vs placebo for a reduction in nicotine vaping using weekly quantitative cotinine levels from Week 2 to Week 12. Safety was assessed by adverse effects and serious adverse effects, considering number, severity, and attribution to study drug.
Cotinine: The data were analyzed by visit and also using a repeated measures model. […] Cotinine values less than 1 were converted to 1 due to asymmetry.

O=c1cccc2n1C[C@@H]1CNC[C@H]2C1 [cytisine, (−)-Cytisine]
Saliva Cotinine Actual Value, Mean (Week 2): 133.598 ng/mL
Saliva Cotinine Actual Value, Median (Week 2): 70.200 ng/mL
Saliva Cotinine Change from Baseline, Mean (Week 2): -185.522 ng/mL
Saliva Cotinine Change from Baseline, Median (Week 2): -182.015 ng/mL
Saliva Cotinine Change from Baseline, LS Means (Week 2): -181.306 ng/mL
Saliva Cotinine Change from Baseline, LS Means Difference from Placebo (Week 2): -32.506 ng/mL
Saliva Cotinine Actual Value, Mean (Week 3): 112.224 ng/mL
Saliva Cotinine Actual Value, Median (Week 3): 2.495 ng/mL
Saliva Cotinine Change from Baseline, Mean (Week 3): -210.563 ng/mL
Saliva Cotinine Change from Baseline, Median (Week 3): -210.500 ng/mL
Saliva Cotinine Change from Baseline, LS Means (Week 3): -205.329 ng/mL
Saliva Cotinine Change from Baseline, LS Means Difference from Placebo (Week 3): -72.832 ng/mL
Saliva Cotinine Actual Value, Mean (Week 4): 112.055 ng/mL
Saliva Cotinine Actual Value, Median (Week 4): 1.710 ng/mL
Saliva Cotinine Change from Baseline, Mean (Week 4): -206.833 ng/mL
Saliva Cotinine Change from Baseline, Median (Week 4): -203.500 ng/mL
Saliva Cotinine Change from Baseline, LS Means (Week 4): -202.672 ng/mL
Saliva Cotinine Change from Baseline, LS Means Difference from Placebo (Week 4): -74.090 ng/mL
Saliva Cotinine Actual Value, Mean (Week 5): 111.201 ng/mL
Saliva Cotinine Actual Value, Median (Week 5): 1.565 ng/mL
Saliva Cotinine Change from Baseline, Mean (Week 5): -204.721 ng/mL
Saliva Cotinine Change from Baseline, Median (Week 5): -187.000 ng/mL
Saliva Cotinine Change from Baseline, LS Means (Week 5): -201.526 ng/mL
Saliva Cotinine Change from Baseline, LS Means Difference from Placebo (Week 5): -83.364 ng/mL
Saliva Cotinine Actual Value, Mean (Week 6): 123.705 ng/mL
Saliva Cotinine Actual Value, Median (Week 6): 1.480 ng/mL
Saliva Cotinine Change from Baseline, Mean (Week 6): -199.608 ng/mL
Saliva Cotinine Change from Baseline, Median (Week 6): -168.500 ng/mL
Saliva Cotinine Change from Baseline, LS Means (Week 6): -196.960 ng/mL
Saliva Cotinine Change from Baseline, LS Means Difference from Placebo (Week 6): -79.952 ng/mL
Saliva Cotinine Actual Value, Mean (Week 7): 133.054 ng/mL
Saliva Cotinine Actual Value, Median (Week 7): 0 ng/mL
Saliva Cotinine Change from Baseline, Mean (Week 7): -181.605 ng/mL
Saliva Cotinine Change from Baseline, Median (Week 7): -184.000 ng/mL
Saliva Cotinine Change from Baseline, LS Means (Week 7): -179.597 ng/mL
Saliva Cotinine Change from Baseline, LS Means Difference from Placebo (Week 7): -49.309 ng/mL
Saliva Cotinine Actual Value, Mean (Week 8): 125.966 ng/mL
Saliva Cotinine Actual Value, Median (Week 8): 0 ng/mL
Saliva Cotinine Change from Baseline, Mean (Week 8): -188.539 ng/mL
Saliva Cotinine Change from Baseline, Median (Week 8): -194.655 ng/mL
Saliva Cotinine Change from Baseline, LS Means (Week 8): -192.048 ng/mL
Saliva Cotinine Change from Baseline, LS Means Difference from Placebo (Week 8): -78.107 ng/mL
Saliva Cotinine Actual Value, Mean (Week 9): 121.622 ng/mL
Saliva Cotinine Actual Value, Median (Week 9): 2.030 ng/mL
Saliva Cotinine Change from Baseline, Mean (Week 9): -202.849 ng/mL
Saliva Cotinine Change from Baseline, Median (Week 9): -199.000 ng/mL
Saliva Cotinine Change from Baseline, LS Means (Week 9): -195.014 ng/mL
Saliva Cotinine Change from Baseline, LS Means Difference from Placebo (Week 9): -86.006 ng/mL
Saliva Cotinine Actual Value, Mean (Week 10): 127.718 ng/mL
Saliva Cotinine Actual Value, Median (Week 10): 4.100 ng/mL
Saliva Cotinine Change from Baseline, Mean (Week 10): -200.886 ng/mL
Saliva Cotinine Change from Baseline, Median (Week 10): -197.500 ng/mL
Saliva Cotinine Change from Baseline, LS Means (Week 10): -196.615 ng/mL
Saliva Cotinine Change from Baseline, LS Means Difference from Placebo (Week 10): -62.680 ng/mL
Saliva Cotinine Actual Value, Mean (Week 11): 137.834 ng/mL
Saliva Cotinine Actual Value, Median (Week 11): 10.900 ng/mL
Saliva Cotinine Change from Baseline, Mean (Week 11): -187.683 ng/mL
Saliva Cotinine Change from Baseline, Median (Week 11): -177.500 ng/mL
Saliva Cotinine Change from Baseline, LS Means (Week 11): -186.878 ng/mL
Saliva Cotinine Change from Baseline, LS Means Difference from Placebo (Week 11): -63.262 ng/mL
Saliva Cotinine Actual Value, Mean (Week 12): 157.889 ng/mL
Saliva Cotinine Actual Value, Median (Week 12): 36.550 ng/mL
Saliva Cotinine Change from Baseline, Mean (Week 12): -172.588 ng/mL
Saliva Cotinine Change from Baseline, Median (Week 12): -178.000 ng/mL
Saliva Cotinine Change from Baseline, LS Means (Week 12): -167.731 ng/mL
Saliva Cotinine Change from Baseline, LS Means Difference from Placebo (Week 12): -57.329 ng/mL
Saliva Cotinine Actual Value, Mean (Week 16): 181.742 ng/mL
Saliva Cotinine Actual Value, Median (Week 16): 140.000 ng/mL
Saliva Cotinine Change from Baseline, Mean (Week 16): -146.358 ng/mL
Saliva Cotinine Change from Baseline, Median (Week 16): -116.000 ng/mL
Saliva Cotinine Change from Baseline, LS Means (Week 16): -145.035 ng/mL
Saliva Cotinine Change from Baseline, LS Means Difference from Placebo (Week 16): -54.792 ng/mL
